Measurements published in patent US7985424B2, “Dendritic polymers with enhanced amplification and interior functionality” (Dendritic Nanotechnologies Inc., priority 2004, dated 2011).

Assays:
[1] = Proton relaxivity analysis (variable field T1-T2 analyzer); type: physicochemical; conditions: Table IV; field strength varied from 1-64 MHz
Description: Relaxivity analysis was performed using a variable field T1-T2 analyzer. The field strength was varied from 1-64 MHz.
The Gd(III) content of the solutions was determined on a sequential, radially viewed Varian™ Liberty Series II ICPOES inductively coupled plasma optical emission spectrophotometer (Anderson Analytical, TX). Relaxivity analysis was performed using a variable field T1-T2 analyzer (University of Pittsburgh). The field strength was varied from 1-64 MHz. […] Relaxivity values for DTPA-Gd(III)-encapsulated dendrimers were similar to free DTPA-Gd(III).

HEK 293 cells = test: Membrane permeation of FITC-conjugated PEHAM dendrimer (fluorescence microscopy); type: cell-based, human; conditions: monitored at 2, 5 and 24 hours, FIG. 13
Description: Fluorescence microscopy and phase contrast microscopy studies were performed using a Nikon Diaphot™ TMD microscope equipped with Nikon™ TMD-EF for fluorescence, along with a Nikon™ CoolPix 990 digital camera to capture the results.
HEK 293 cells were plated at 40% confluency in a 96-well plate (Becton Dickinson) in MEM (Fisher), containing 10% FBS (ISC BioExpress). […] Control wells included G=1 PEHAM dendrimer and FITC dye alone, at equivalent concentrations. The cells were incubated with the conjugate for 24 hours, with monitoring via fluorescence microscopy at 2, 5, and 24 hours. Prior to examination under the microscope, the cells to be analyzed were rinsed 2 times with PBS.

Relaxivity (r1) [1] [mM⁻¹ s⁻¹] | Compound | membrane permeation / intracellular fluorescence (HEK 293 cells)
4.2 | O=C([O-])CN(CCN(CC(=O)[O-])CC(=O)O)CCN(CC(=O)[O-])CC(=O)O.[Gd+3] [DTPA-Gd, diethylenetriaminepentaacetic acid, gadolinium(III)] | –
– | fluorescein isothiocyanate [FITC] | no intracellular fluorescence
